Test results as given in patent US20210386754A1, “COMPOSITIONS AND METHODS FOR TREATING ATHEROSCLEROTIC VASCULAR DISEASE” (AUGUSTA UNIVERSITY RESEARCH INSTITUTE, INC., priority 2020, published 2021).
“Also recorded” adds a separate entry of the source.

Experiments:
[1] = test system: lipopolysaccharide (LPS)-treated ApoE-/- mice; conditions: Zhao et al. 2012; cited from earlier work
[2] = test system: pre-hypertensive patients; conditions: amiloride monotherapy; independent of blood pressure lowering effect; cited from earlier work
[3] = test system: macropinocytosis in macrophages; assay: Unbiased screen of FDA-approved drug library for inhibition of macrophage macropinocytosis; format: cell-based; conditions: screen of an FDA-approved drug library
[4] = cited from earlier work
[5] = test system: hypercholesterolemic mice (PCSK9-AAV-mediated LDLR knockdown); assay: Atherosclerosis model: PCSK9-AAV, partial LCA ligation, Western diet; format: in vivo, mouse
Description: Mice were given a single injection of AAV-PCSK9 (1×1011 VG) and fed a Western diet (Envigo, TD.88137, Indianapolis, Ind.). One week after AAV-PCSK9 injection, mice underwent partial carotid ligation surgery as previously described (67) and Western diet was continued for another 3 weeks. In separate experiments, mice were given a single injection of AAV-PCSK9 (1×1011 VG) and fed a Western diet for 16 weeks. Mice were anesthetized (isoflurane inhalation, 3%) and exsanguinated. Blood was collected from left ventricle using a heparinized syringe fitted with a 21 G needle. Aortic arch and carotid arteries were collected, and gross macroscopic images were acquired. For molecular histology studies, carotids and aortic arch were fixed in 4% paraformaldehyde (PFA), embedded in OCT compound and stored at −80° C. until use.
ORO staining: Atherosclerosis development in carotid arteries and whole aorta were studied initially by gross imaging followed by Oil Red O (ORO) staining and plaque quantification. Briefly, the entire aorta was isolated, cleaned of peri-adventitial fat, fixed and imaged on the surface of black silicone-coated dissection dishes. Left carotid arteries were embedded in OCT and 10 μm thick cross-sections were prepared. The arteries were divided into 3 regions based on their distance from the aortic arch: proximal (0-400 μm), middle (2,000-2,400 μm) and distal (4,000-4,400 μm). Frozen sections and whole aortas were then stained with ORO solution (2%) and images were taken using light microscope equipped with a camera under 20× and 1.6× objective lens. The total area, lumen area and ORO positive area were measured for six sections/anatomical position per mouse using Image J software. The ratio of ORO positive area to arterial area is represented as plaque area. Plasma total cholesterol concentrations were determined by the Amplex™ Red Cholesterol Assay Kit (ThermoFisher, Rockford, Ill.). Plasma lipid profiles were obtained by column fractionation and measurements of fraction cholesterol content.
Hematoxylin and Eosin (H&E) or Masson's trichrome staining: Frozen sections were also used for Hematoxylin and Eosin (H&E) or Masson's trichrome staining following standard procedures to evaluate the lesion size and collagen content, respectively.
Orcein and Martius Scarlet Blue (OMSB) staining: OMSB was used for qualitative and quantitative analysis of atherosclerotic plaques as previously described. Briefly, left carotid arteries were dissected out, fixed in 4% buffered paraformaldehyde (pH=7.4) for at least 48 hr, and then routinely processed and embedded in paraffin (tissue processor TP1020; Leica, Wetzlar, Germany). Cross sections were cut every 5 m along the artery (starting from the proximal end) and mounted serially on silanized slides. Sections were stained and mounted automatically using Leica ST5010 Autostainer XL combined with Leica CV5030 Glass Coverslip. Deparaffinized sections through xylene and ethanol, and rehydrate to water. Postfix sections in Bouin's fixative at 56° C. for 1 hour, then rinse for 10 min in tap water to remove traces of picric acid. Stain with orcein for 20 min at 56° C. Differentiate in acidic alcohol for 2 min and then transfer to 96% ethanol for 30 s. Stain with martius yellow for 3 min and rinse in distilled water (2×2 min). Stain with crystal scarlet for 10 min. Differentiate with phosphotungstic acid 2 min and transfer to distilled water (for about 10 s). Stain with methyl blue 5 min. Rinse in acetic acid water 3 min, dehydrate through ethanol and carbol-xylene, clear in xylene, and mount in DPX or other resin. Staining of collagen with picrosirius red. The sections were examined and digital images of stained arteries were recorded using Olympus dotSlide system (Olympus, Tokyo, Japan). Segmentation algorithm allowed to distinguish vessel wall area, lumen area, plaque area, and area of the plaque occupied by collagen. The results were presented as areas of identified components in μm2. […]

THP-1 macrophages = assay: Foam cell formation / nLDL macropinocytosis, Nile Red FACS; format: cell-based, human; conditions: for macropinocytosis of nLDL (Nile Red fluorescence): M-CSF 100 ng/mL, PDGF 200 ng/mL
Procedure: Flow cytometry experiments were performed using the BD Accuri C6 flow cytometer using a standard protocol.
Foam cell formation: THP-1 macrophages or bone marrow-derived macrophages were treated with vehicle, known macropinocytosis stimulators (PMA 1 μM, M-CSF 100 ng/mL or PDGF 200 ng/mL)+/− macropinocytosis inhibitors (imipramine 10 μM or EIPA 25 μM; 1 hour pre-incubation) in the presence of nLDL, ox-LDL, or ac-LDL ([…]) for 24 hours. Cells were fixed in 2% PFA and stained with Nile Red (50 ng/mL) for 7 min. Fluorescence intensity was measured using the FL3 channel for Nile Red (Ex: 488 nm, Em: 670 nm).

[6] = imipramine-treated vs control mice

N=C(N)NC(=O)c1nc(Cl)c(N)nc1N [amiloride]
lesion development [1]: reduces
pulse wave velocity (PWV) [2]: improves

CN(C)CCCN1c2ccccc2CCc2ccccc21 [imipramine]
IC50 [3]: 131 nM
oral bio-availability [4]: 95%
atherosclerotic lesion formation (OMSB staining) ([5]; imipramine 9 mg/mL, pump rate 0.11 μl/hour, sc, LDLR-knockdown mice, vs vehicle): significantly attenuates; also recorded: attenuated
collagen area (collagen %) ([5]; imipramine sc vs vehicle): inhibited
relative internal vessel area (IVA %) ([5]; imipramine sc vs vehicle): inhibited
blood pressure [5, 6]: no significant differences
body weight [5, 6]: no significant differences
fat mass [5, 6]: no significant differences
whole body fluid content [5, 6]: no significant differences
M-CSF- and PDGF-induced intracellular lipid accumulation following nLDL treatment (Nile Red) (THP-1 macrophages; imipramine 1 hour preincubation, 100 ng/mL M-CSF or 200 ng/mL PDGF, 50 μg/mL nLDL, 24 hours): inhibited

PDGF
macropinocytosis of nLDL (Nile Red fluorescence) (THP-1 macrophages): stimulated

catalase
M-CSF- and PDGF-induced nLDL internalization (THP-1 macrophages; non-pegylated SOD 100 U/mL and/or catalase 250 U/mL, 1 hr pretreatment, 50 μg/mL nLDL, 24 hours): did not inhibit

B1: M-CSF: macrophage colony-stimulating factor, physiological stimulator of macropinocytosis (protein, UniProt P09603 33-554, looked up)
Macrophage colony-stimulating …: EEVSEYCSHMIGSGHLQSLQRLIDSQMETSCQITFEFVDQEQLKDPVCYLKKAFLLVQDIMEDTMRFRDNTPNAIAIVQLQELSLRLKSCFTKDYEEHDKACVRTFYETPLQLLEKVKNVFNETKNLLDKDWNIFSKNCNNSFAECSSQDVVTKPDCNCLYPKAIPSSDPASVSPHQPLAPSMAPVAGLTWEDSEGTEGSSLLPGEQPLHTVDPGSAKQRPPRSTCQSFEPPETPVVKDSTIGGSPQPRPSVGAFNPGMEDILDSAMGTNWVPEEASGEASEIPVPQGTELSPSRPGGGSMQTEPARPSNFLSASSPLPASAKGQQPADVTGTALPRVGPVRPTGQDWNHTPQKTDHPSALLRDPPEPGSPRISSLRPQGLSNPSTLSAQPQLSRSHSSGSVLPLGELEGRRSTRDRRSPAEPEGGPASEGAARPLPRFNSVPLTDTGHERQSEGSFSPQLQESVFHLLVPSVILVLLAVGGLLFYRWRRRSHQEPQRADSPLEQPEGSPLTQDDRQVELPV
macropinocytosis of nLDL (Nile Red fluorescence) (THP-1 macrophages): stimulated
